In ChEMBL document CHEMBL1201862, “PubChem BioAssay data set” (2004):
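Where inhibition never reached the appropriate level, the endpoint shown equals the highest concentration tested. Otherwise, values were interpolated linearly from a five-concentration, 48-hour dose response in 96-well plates. GI50 marks 50% less growth.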 Activity calls are given as the source filed them. Rule as the data show it: active = GI50 up to about 1.1 µM and inactive = higher.

Legend:
Assay in all cases: NCI anticancer screen, dose series, 48 h
[1] = tested on: NCI-H226
[2] = tested on: HCC 2998
[3] = tested on: OVCAR-3
[4] = tested on: NCI/ADR-RES
[5] = tested on: TK-10
[6] = tested on: SR
[7] = tested on: Malme-3M
[8] = tested on: Hs-578T
[9] = tested on: CAKI-1
[10] = tested on: HOP-92
[11] = tested on: A498
[12] = tested on: SF-268
[13] = tested on: DU-145
[14] = tested on: BT-549
[15] = tested on: CCRF-CEM
[16] = tested on: OVCAR-4
[17] = tested on: UO-31
[18] = tested on: NCI-H460
[19] = tested on: SF-539
[20] = tested on: SNB-75

SMILES	GI50 [1]	GI50 [2]	GI50 [3]	GI50 [4]	GI50 [5]	GI50 [6]	GI50 [7]	GI50 [8]	GI50 [9]	GI50 [10]	GI50 [11]	GI50 [12]	GI50 [13]	GI50 [14]	GI50 [15]	GI50 [16]	GI50 [17]	GI50 [18]	GI50 [19]	GI50 [20]
N#CC1(C#N)C2(c3ccccc3)OC(c3ccccc3)(c3cc4ccccc4cc32)C1(C#N)C#N	12.6 µM (inactive)	18.5 µM (inactive)	13.9 µM (inactive)	21 µM (inactive)	16.2 µM (inactive)	33.3 µM (inactive)	18.1 µM (inactive)	25.8 µM (inactive)	7.91 µM (inactive)	1.52 µM (inactive)	19.5 µM (inactive)	17 µM (inactive)	14.5 µM (inactive)	> 10 µM (inactive)	1.08 µM (active)	11.4 µM (inactive)	24 µM (inactive)	18 µM (inactive)	16.1 µM (inactive)	13 µM (inactive)
OCCCCn1cc(Cn2ncc3c(SCc4ccccc4)ncnc32)nn1	93.5 µM (inactive)	56.4 µM (inactive)	28.2 µM (inactive)	21.6 µM (inactive)	> 100 µM (inactive)	27.7 µM (inactive)	> 100 µM (inactive)	26 µM (inactive)	31 µM (inactive)	> 100 µM (inactive)	43.5 µM (inactive)	63.1 µM (inactive)	58.5 µM (inactive)	34.7 µM (inactive)	45.5 µM (inactive)	28.9 µM (inactive)	31.1 µM (inactive)	41.4 µM (inactive)	43.2 µM (inactive)	38.7 µM (inactive)
O=[N+]([O-])C(=C1NCCN1)/C(Cl)=C(\Cl)Br	> 81.8 µM (inactive)	60 µM (inactive)	18 µM (inactive)	> 63.1 µM (inactive)	> 72.4 µM (inactive)	21.5 µM (inactive)	36.9 µM (inactive)	> 100 µM (inactive)	16.3 µM (inactive)	34.4 µM (inactive)	> 44.9 µM (inactive)	35.2 µM (inactive)	> 100 µM (inactive)	36.1 µM (inactive)	7.1 µM (inactive)	46.5 µM (inactive)	84.1 µM (inactive)	51.6 µM (inactive)	> 63 µM (inactive)	27.2 µM (inactive)
N#CC(C#N)=Cc1c(O)ccc2ccccc12	21.3 µM (inactive)	16 µM (inactive)	13.7 µM (inactive)	17.3 µM (inactive)	18.1 µM (inactive)	4.17 µM (inactive)	17 µM (inactive)	17.3 µM (inactive)	14.1 µM (inactive)	0.422 µM (active)	16 µM (inactive)	11.9 µM (inactive)	14.2 µM (inactive)	16.7 µM (inactive)	1.57 µM (inactive)	18.3 µM (inactive)	14 µM (inactive)	14.7 µM (inactive)	10.6 µM (inactive)	3.3 µM (inactive)
